Assay results taken from patent publication US12343336B2, “Increasing cancer cells' sensitivity to tumor treating fields (TTFields) by inhibiting IL11 activity” (Novocure GmbH, priority 2019, dated 2025).

Tests used:
[1] = system: N1S1 liver carcinoma cells; test: N1S1 tumor volume by MRI in rats treated with TTFields and/or sorafenib; format: in vivo, Sprague Dawley rats
Experimental: Tumor volume was determined by MRI. […] In this experiment, the volume of the tumor was measured using MRI on day 6 (one day before treatment start) and day 14 (one day after the end of treatment); and each data point in FIG. 1A represents the volume of the tumor on day 14 divided by the volume of the tumor on day 6. Thus, numbers greater than 1 represent growth in the tumor volume, and numbers smaller than 1 represent a tumor that has shrunk between day 6 and day 14. In this figure, “*” represents p<0.1, “**” represents p<0.01, and “****” represents p<0.0001. […] FIG. 1B represents the volume of the tumor.
(§1) Male SD rats, 8-weeks of age (Envigo Ltd, Israel), were anesthetized by I.P. injection of Ketamine (75 mg/kg) and Xylazine (10 mg/kg)(FIG. 2). After loss of postural reflexes, the fur was removed from the upper abdominal area using a trimmer. The left lobe of the liver was surgically exposed and 10 μl of cell suspension containing 50,000 N1-S1 hepatocellular carcinoma cells in equal volumes of serum free medium and Matrigel (CORNING, Bedford, MA) were injected directly into the left lobe using a syringe with a 31-gauge needle. The peritoneum and abdominal muscles incisions were closed using surgical sutures and the skin were close by clips. The rats were allowed to recover for 6 days.
(§2) On day 6 all animals underwent a first MRI scan and were randomly divided into the following treatment groups:
(§3) Group I—rats were treated with sham heating electrodes and vehicle injection.
(§4) Group II—rats were treated with 150 kHz TTFields and vehicle injection.
Group III—rats were treated with 10 mg/kg/day Sorafenib.
Group IV—rats were treated with 150 kHz TTFields and 10 mg/kg/day Sorafenib.
On day 7, electrodes (TTFields or sham heating) were placed on the animals. The animals were treated for 6 days with TTFields or sham heat. […] Tumor volume were determined based on MRI scans on days […] after tumor implantation. […] Tumor volume was measured by manual segmentation of the tumor using ITK-SNAP version 3.6.0-rc1 free software. […]

N1S1 tumors = test: Fibrosis evaluation (score and Masson Trichrome morphometry) of treated N1S1 tumors; format: in vivo, SD rats
Experimental: as §1, §2, §3, §4
Group III—rats were treated with 10 mg/kg/day Sorafenib. […]
On day 7, electrodes (TTFields or sham heating) were placed on the animals. […] Tumor volume were determined based on MRI scans on days […] after tumor implantation. […] Tumor volume was measured by manual segmentation of the tumor using ITK-SNAP version 3.6.0-rc1 free software. […]
Tumors were harvested for histological evaluation of the grade of fibrosis using a semi-quantitative evaluation scale. […] Masson Trichrome stained sections were analyzed for fibrosis, using a scoring grade scale and digital morphometry.
H&E stained sections were examined by one pathologist and scored by a semi-quantitative scoring system for the presence of pathological changes (FIGS. 3 and 3A), as follows: • Grade 0: no signs of fibrosis • Grade 1: very mild signs of fibrosis • Grade 2: mild signs of fibrosis • Grade 3: moderate signs of fibrosis • Grade 4: High grade of fibrosis • Grade 5: Very high grade of fibrosis […]
The percent of the stained areas (FIG. 3: top-right) out of the whole tissue (FIG. 3: top-right+bottom-left) was calculated as shown in FIG. 4.

CNC(=O)c1cc(Oc2ccc(NC(=O)Nc3ccc(Cl)c(C(F)(F)F)c3)cc2)ccn1 [sorafenib]
tumor volume ([1]; combination of TTFields (2.86 V/cm) and sorafenib (10 mg/kg/day)): synergistic decrease
decrease in tumor volume ([1]; combination of TTFields and sorafenib, N1S1 tumors, FIG. 1): ≥ 10 fold
fold increase in tumor volume (day 14 / day 6) ([1]; combination of TTFields at 150 kHz and sorafenib 10 mg/kg/day IP, MRI): significantly reduced
fibrosis score (N1S1 tumors; TTFields in combination with sorafenib, relative to TTFields alone, evaluated by a pathologist): significantly reduced
reduction in fibrotic area compared to control group (N1S1 tumors; combined treatment of 150 kHz TTFields and sorafenib 10 mg/kg/day): 20.8%
decrease in fibrotic area relative to control (N1S1 tumors; sorafenib alone, 10 mg/kg/day, morphometry of fibrosis percent): 30.4%
